Measurements from patent publication US20100048545A1, “Compounds and Compositions for Use in the Prevention and Treatment of Disorders of Fat Metabolism and Obesity” (INNODIA INC., priority 2006, published 2010).

What was measured:
[1] = test system: C57BL/6 mice fed a high fat diet; experiment: Analogs and isomers of 4-hydroxyisoleucine on body weight gain in C57BL/6 mice fed a high fat diet, 3 days; format: in vivo
Procedure: C57BL/6 mice were received at 6-7 weeks of age and fed a standard commercial chow for 1 week (acclimation period). The animals were randomized based on their body weight values, into control and treatment groups (n=6). Then, animals were shifted to a high fat diet (60% of calories from fat) and treated twice daily by oral gavage with 4-hydroxyisoleucine (4-OH, compound 14a) or different analogs and isomers of 4-OH at the dose of 100 mg per kg of body weight for 3 days. The control group (Control HFD) received vehicle (water) alone and a group was kept under standard chow (Control Lean). Body weight of the mice was recorded daily. Two different experiments were run and the effect on body weight gain of selected analogs and isomers according to the invention is presented in FIG. 30A (Experiment 1) and FIG. 30B (Experiment 2).

[2] = test system: normal Wistar rats fed a high fat, high sucrose diet (HFHS); experiment: Prevention of weight gain in rat model of diet-induced obesity (HFHS diet), 28 days; conditions: 100 mg/kg twice daily oral; for weight gain: HFHS diet
From the text: The aim of this study was to evaluate the effect of chronic administration of 4-hydroxyisoleucine (4-OH, Compound 14a) on food consumption, tissue weight, and body weight gain of normal Wistar rats fed a high fat, high sucrose diet (HFHS).
The animals were acclimated for 1 week and fed standard chow prior to the commencement of treatment, then for the 28 days of the treatment the animals were fed a high fat, high sucrose diet (HFHS). A total of 30 animals were used in the study. The animals were distributed into 3 groups each composed of 10 animals: 1 group fed HFHS with treatment, 1 untreated control group fed standard chow, and 1 untreated group fed HFHS. Animals were housed separately and food consumption was monitored daily.
For the four weeks of treatment, the test compounds were dissolved in reverse osmosis water. 4-hydroxyisoleucine (4-OH) was aliquoted and kept at 4° C. Treated animals received twice daily oral administration of 4-OH at 100 mg/kg per dose. Control animals received water twice daily.

FABP4/ap2 = experiment: RT-PCR gene expression in adipocytes of treated rats: FABP4/ap2; format: in vivo
Procedure: As the ex vivo studies on adipocytes indicated the lipolytic effect of drug was due to chronic exposure (see previous example), a role in gene regulation was assessed. RT-PCR was used to assess the expression of genes in the adipocytes from treated and control animals.

dietary obese rat model = experiment: Energy balance (VO2, respiratory quotient) in dietary obese rat model, prevention and reversal studies; format: in vivo, male Wistar rats
Procedure: The effect of 4-OH on energy balance was assessed in the dietary obese rat model. In these studies, male Wistar rats were administered a high fat/high sucrose diet (65.4% fat) and treated chronically with 4-OH. Each study consisted of 4 groups of animals. The groups studied were normal chow fed rats, rats fed a high fat/high sucrose diet and rats fed a high fat high sucrose diet and orally administered 4-OH at 100 mg/kg twice per day. These three groups had access to food ad libitum throughout the study. A fourth group fed the same number of Kcal (or similar energy intake) as the 4-OH group was also included to investigate drug effects that may occur in addition to changes in food intake. Two studies were performed: one to determine whether 4-OH could prevent the development of obesity (prevention study) and the other to determine whether 4-OH could reverse established obesity (reversal study). In the prevention study, male Wistar rats were administered the high fat/high sucrose diet for 5 weeks. During the first week of diet administration, the rats were adapted to receiving increasing doses of 4-OH. In the reversal of obesity study, the animals were first made obese by feeding the high fat/high sucrose diet for 28 days. This feeding regime continued for the duration of the study. After the period of obesity induction, the rats were also adapted to receiving increasing doses of 4-OH during a one week period. After the adaptation period, 4-OH was orally administered at a dose of 100 mg/kg twice per day for the following 4 week period in both treatment protocols. The ability of 4-OH to influence energy expenditure was determined by indirect calorimetry. On the 21st day of both the prevention and reversal studies, rats were placed into metabolic cages and energy expenditure was assessed by determining oxygen consumption. The effect of 4-OH on oxygen consumption during the day/night cycle on Day 21 of both the prevention and reversal of obesity studies is shown in FIGS. 27A and 27B. The respiratory quotient (RQ) was calculated in these studies from both the quantity of oxygen consumed and the quantity of carbon dioxide produced while the animals were present in the metabolic chambers. A RQ of 1 is indicative that the animals are burning pure carbohydrate as the energy source.

AMPK-ACC = experiment: Phosphorylation level of AMPK-ACC in the hypothalamus of HFHS fed rats (Western blot, anti-pACC); format: in vivo; conditions: 100 mg/kg BID for 2 days, overnight fasted, dosed one hour before terminal procedure, vs control
From the text: The AMPK pathway is known to regulate food intake in the hypothalamus. In low energy state as in a food deprivation situation, AMPK phosphorylates and in this way inactivates acetyl CoA carboxylase (ACC). Phosphorylation of ACC thus reduces its ability to catalyse the production of malonyl-CoA which is thought to be implicated in the […] of food consumption (.Hu, Z., Dai, Y., Prentki, M., Chohnan, S, and Lane, D. (2005) J. Biol. Chem. 280: 39681-39683).
To investigate whether 4-OH can alter activity of the AMPK/ACC in the hypothalamus, rats were treated BID with 100 mg/kg of 4-OH or water (control group) for 2 days. Each group was composed of four animals. All rats (controls and 4-OH treated) were fasted overnight before experimentation. On day 29, rats from each respective group were treated one hour before the terminal procedure with their appropriate solution (water for control and 4-OH for chronically 4-OH treated rats). After decapitation, the hypothalamus were isolated and snap frozen in liquid nitrogen. The hypothalamus was then powdered with liquid nitrogen and then solubilized in lysis buffer. Western blot was performed on the hypothalamus extract after resolution of proteins onto a 7.5% polyacrylamide SDS gel and transfer onto a nitrocellulose membrane. […]

With C[C@@H]([C@H](C)O)[C@H](N)C(=O)O [Compound 14a, (2S,3R,4S)-4-Hydroxyisoleucine] the “body weight gain induced by the high fat diet” value ([1]; 100 mg/kg twice daily oral gavage) was “reduced body weight gain induced by the high fat diet”, the “body weight compared to pre-treatment values” ([1]; 100 mg/kg twice daily, one experiment (FIG. 30B)) was “reduced body weight of the mice as compared to pre-treatment values” and the “epididymal and peri-renal adipose tissue” value [2] was “reduction of epididymal and peri-renal adipose tissue”. The food consumption [2] was “reduction in food consumption”, the “muscle, brown fat, and organ weight” value [2] was “not affected” and the tolerability of treatment [2] was “well tolerated”. For the same molecule, the weight gain [2] was “prevention of weight gain”, the weight gain ([2]; listed as 4-OH) was “Moderation of weight gain was observed” and the “expression of FABP4/ap2, increase” value (FABP4/ap2) was 1.3-1.4 times. For the same molecule, the “Increase (x times) in expression of FABP4/ap2” value (FABP4/ap2; HFHS diet, treated for 4 weeks (28 days)) was 1.4 x times, the “respiratory quotient, night phase” value (dietary obese rat model; 100 mg/kg twice per day) was “not reduced” and the “oxygen consumption per kg of body weight, night phase” value (dietary obese rat model; 100 mg/kg twice per day, Day 21) was “significantly enhanced relative to both the pair fed and control groups of animals”. For the same molecule, the “oxygen consumption (VO2), light phase” value (dietary obese rat model; 100 mg/kg twice per day, Day 21, prevention and reversal studies) was “essentially identical”, the “respiratory quotient (fuel source), day phase” value (dietary obese rat model; 100 mg/kg twice per day, vs pair fed animals) was “burn proportionally more fat than pair fed animals” and the “VO2 expressed per rat” value (dietary obese rat model; 100 mg/kg twice per day, vs pair fed control groups) was “greater”. The “respiratory quotient (fuel source), day phase” value (dietary obese rat model; reversal study, vs pair fed and vehicle treated animals) was “proportionally more fat than both the pair fed and vehicle treated animals” and the “level of phosphorylated ACC in hypothalamus” value (AMPK-ACC) was “even more reduced”.
